# Tests used:
# [1] = target: γ1AMPK complexes; test: Radiolabel kinase assay, immobilised GST-tagged γ1AMPK (stated across γ1 complexes); assay type: biochemical, human
# From the text: We directly compared in vitro potencies of pan activators by performing radiolabel kinase assays with γ1AMPK complexes. Initially, we used GST-tagged γ1AMPK expressed in HEK293T/17 cells and immobilised on glutathione-Sepharose (Figure 2 and Table 2). […] These assays used AMPK purified from Sf9 insect cells or E. coli that was pre-treated with CaMKK2. […] However, relative to immobilised GST-α2β1γ1 from HEK293T/17 cells, His-tagged and myristoylated α2β1γ1 AMPK (expressed in E. coli, CaMKK2-treated and assayed in solution) was at least 10-fold more sensitive to activation by both MK-8722 and MSG011 (Supplementary Figure S3B), indicating the GST-affinity tag or CaMKK2 treatment may exert some influence on sensitivity to these activators.
# Adherent HEK293T/17 cells at ∼50% confluency were triply transfected with full-length AMPK α1 or α2 (NH2-terminal GST fusion, pDEST27 vector), β1 or β2 (COOH-terminal FLAG fusion, pcDNA3.1 vector), and γ1, γ2 or γ3 (NH2-terminal HA fusion, pMT2 vector) in the presence of FuGENE HD transfection reagent (Promega) as per the manufacturers protocol. Cells were harvested 48 hours post-transfection by first gently washing in ice cold phosphate buffered saline (PBS; Sigma–Aldrich), then scraping in ice cold lysis buffer (50 mM TRIS pH 7.5, 150 mM NaCl, 10% (v/v) glycerol, 50 mM NaF, 5 mM sodium pyrophosphate, 1% (v/v) Triton X-100, cOmplete protease inhibitor cocktail). Lysates were clarified by centrifugation (16 000g, 3 min, 4°C), flash frozen in liquid N2 and stored at −80°C until analysis. For radioactive kinase assays, AMPK was immobilised on glutathione Sepharose 4B resin (GE Healthcare) by incubation with lysates for 1.5 h at 4°C. Following centrifugation (1000g, 3 min, 4°C), the resin was washed twice in purification buffer (50 mM HEPES pH 7.4, 150 mM NaCl, 10% (v/v) glycerol, 0.02% (v/v) Tween-20), once in 50 mM HEPES pH 7.4 with 0.02% (v/v) Tween-20, then resuspended to a 50% slurry with 50 mM HEPES pH 7.4 and 10 µl added to the activity assays. For in solution kinase assays, α1β1γ1 AMPK was eluted from glutathione-Sepharose by incubating with purification buffer supplemented with 40 mM reduced glutathione (Sigma–Aldrich).
# AMPK activity was determined by phosphorylation of the SAMS peptide (Purar Chemicals, sequence: NH2-HMRSAMSGLHLVKRR-COOH) in a 25 µl reaction volume containing 100 µM SAMS peptide, 5 mM MgCl2, 200 µM ATP, [γ-^32P]-ATP (PerkinElmer) and assay buffer (50 mM HEPES pH 7.4, 1 mM DTT and 0.02% (v/v) Tween-20) and purified AMPK. […] Ultima Gold liquid scintillation fluid (5 ml; PerkinElmer) was added to vials containing dried phosphocellulose papers, and the level of ^32P-transfer to the SAMS peptide was determined using a Tri-Carb 2900TR liquid scintillation counter (PerkinElmer).
# [2] = test system: HEK293T cells; test: Immunoblot of AMPK signalling in HEK293T cells; assay type: cell-based; settings: 2.5 µM, 1 h
# Procedure: (§1) To evaluate the efficacy of MSG011 in cellulo, we incubated mouse primary hepatocytes with 2.5 µM MSG011 for 60 min and tracked changes in phosphorylation of AMPK α-Thr172 (marker of activation) and the AMPK substrate acetyl-CoA carboxylase (ACC) Ser79 (AMPK signalling marker).
# (§2) HEK293T/17, HEK293T, COS7, HeLa and PC3 cells (ATCC) were maintained in Dulbecco's Modified Eagle's medium (DMEM; Sigma–Aldrich) supplemented with 10% fetal bovine serum (FBS; Assay Matrix) at 37°C and 5% CO2. Primary hepatocytes from wild type mice were prepared using the collagenase perfusion method and cultured as described previously. Cultures were incubated with fresh DMEM (no FBS) for 2 h prior to 1 h treatment with MSG011 (dissolved in DMSO) or phenformin (dissolved in H2O). Adherent HEK293T/17 cells at ∼50% confluency were triply transfected with AMPK α1 (pcDNA3.1 vector), β1 (COOH-terminal MYC fusion, pcDNA3.1 vector) and WT γ1 or γ1-R299G mutant (NH2-terminal HA fusion, pMT2 vector) in the presence of FuGENE HD transfection reagent (Promega) as per the manufacturers protocol. […]
# (§3) All samples were separated on 12% SDS–PAGE gels and transferred to an Immobilon-FL PVDF membrane (Merck Millipore). […] Immunoblots were visualised on the Odyssey Infrared Imaging System (LI-COR Biosciences) and immunoreactive bands analysed and quantified using Image Studio Software (LI-COR Biosciences).
# [3] = test system: PC3 cells; test: Immunoblot of AMPK signalling in PC3 cells; assay type: cell-based; settings: PC3, 2.5 µM, 1 h
# Procedure: as §1, §2, §3
"EC50 fold higher than previously determined by high-throughput fluorescence-based assays in solution ([1]; compared with refs 17, 18)","EC50 ([1]; immobilised GST-γ1AMPK, read-out: EC50 values for γ1AMPK activation)",Compound,AMPK signalling (phosphorylation of ACC-Ser79 and raptor-Ser792) [2],α-Thr172 phosphorylation [2],AMPK signalling (phosphorylation of ACC-Ser79 and raptor-Ser792) [3],α-Thr172 phosphorylation [3]
100–1000 fold,1.2 to 5.6 µM,"O[C@@H]1CO[C@H]2[C@@H]1OC[C@H]2Oc1nc2nc(-c3ccc(-c4ccccc4)cc3)c(Cl)cc2[nH]1 [MK-8722, reference compound]",–,–,–,–
–,–,"CC(=O)NC1CC=C(c2ccc(-c3nc4nc(Oc5ccc(C)c(C(=O)O)c5)[nH]c4cc3Cl)cc2)CC1 (stereo not drawn) [MSG011, 5-((5-(4′-Acetamido-2′,3′,4′,5′-tetrahydro-[1,1′-biphenyl]-4-yl)-6-chloro-1H-imidazo[4,5-b]pyridin-2-yl)oxy)-2-methylbenzoic acid]",at levels comparable to extreme energy stress,independent of changes to α-Thr172 phosphorylation,significantly activated AMPK,independent of changes to α-Thr172 phosphorylation

# From PMC9317966, “Structure-function analysis of the AMPK activator SC4 and identification of a potent pan AMPK activator” (Biochemical Journal, 2022)
